Experimental data published in ChEMBL document CHEMBL4346659, “Design, synthesis and evaluation of novel 7H-pyrrolo[2,3-d]pyrimidin-4-amine derivatives as potent, selective and reversible Bruton's tyrosine kinase (BTK) inhibitors for the treatment of rheumatoid arthritis” (Eur J Med Chem, 2019).
Active and inactive are the calls of the source. No cut-off for these calls is given here.

Tests used:
Ramos = assay: Antiproliferative activity against human Ramos cells; format: functional, cell-based; set-up: fold change (FC): reference not given here; conditions: for IC50: Homo sapiens, Ramos
JeKo-1 = assay: Antiproliferative activity against human JeKo1 cells; format: functional, cell-based; set-up: fold change (FC): reference not given here; conditions: for IC50: Homo sapiens, JeKo-1
Daudi = assay: Antiproliferative activity against human Daudi cells; format: functional, cell-based; set-up: fold change (FC): reference not given here; conditions: for IC50: Homo sapiens, Daudi
Mus musculus [1] = assay: Antiarthritic activity in DBA1/J mouse model of collagen-induced arthritis assessed as reduction in bone erosion at 12.5 mg/kg, po qd by H and E staining based assay; format: functional, organism-based
Mus musculus [2] = assay: Antiarthritic activity in DBA1/J mouse model of collagen-induced arthritis assessed as reduction in cartilage damage at 12.5 mg/kg, po qd by H and E staining based assay; format: functional, organism-based
[3] = biological target: T1, Tyrosine-protein kinase BTK (Homo sapiens, UniProt Q06187); assay: Inhibition of BTK (unknown origin) at 1 uM in the presence of ATP by caliper mobility shift assay relative to control
T1 sequence (Q06187 whole entry): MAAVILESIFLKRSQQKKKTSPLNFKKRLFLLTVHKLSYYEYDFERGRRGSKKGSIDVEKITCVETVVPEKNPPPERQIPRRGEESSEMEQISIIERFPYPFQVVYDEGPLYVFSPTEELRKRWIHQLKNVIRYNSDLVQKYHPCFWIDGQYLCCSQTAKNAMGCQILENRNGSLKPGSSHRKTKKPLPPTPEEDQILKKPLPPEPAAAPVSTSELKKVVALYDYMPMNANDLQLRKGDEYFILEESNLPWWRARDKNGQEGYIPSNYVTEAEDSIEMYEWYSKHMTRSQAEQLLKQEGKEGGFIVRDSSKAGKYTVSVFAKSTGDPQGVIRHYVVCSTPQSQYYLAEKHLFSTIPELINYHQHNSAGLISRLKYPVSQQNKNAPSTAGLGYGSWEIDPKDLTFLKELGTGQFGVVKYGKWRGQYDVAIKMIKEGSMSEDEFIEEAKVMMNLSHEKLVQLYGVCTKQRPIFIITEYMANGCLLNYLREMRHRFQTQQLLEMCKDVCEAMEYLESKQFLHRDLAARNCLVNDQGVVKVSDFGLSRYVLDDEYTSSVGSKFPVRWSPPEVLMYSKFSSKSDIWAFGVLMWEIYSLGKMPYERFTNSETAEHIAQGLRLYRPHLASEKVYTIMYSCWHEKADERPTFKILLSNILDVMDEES

[4] = biological target: T1, Tyrosine-protein kinase BTK; assay: Inhibition of BTK (unknown origin) at 0.1 uM in the presence of ATP by caliper mobility shift assay relative to control
[5] = biological target: Tyrosine-protein kinase Tec (Homo sapiens, UniProt P42680); assay: Inhibition of TEC (unknown origin)
[6] = biological target: Cytoplasmic tyrosine-protein kinase BMX (Homo sapiens, UniProt P51813); assay: Inhibition of BMX (unknown origin)
[7] = biological target: T1, Tyrosine-protein kinase BTK; assay: Inhibition of BTK (unknown origin) in the presence of ATP by caliper mobility shift assay
[8] = biological target: Tyrosine-protein kinase ITK/TSK (Homo sapiens, UniProt Q08881); assay: Inhibition of human recombinant ITK using Ulight-TK peptide as substrate measured after 30 mins in the presence of ATP by LANCE method
Sequence of Tyrosine-protein kinase ITK/TSK (Q08881 whole entry): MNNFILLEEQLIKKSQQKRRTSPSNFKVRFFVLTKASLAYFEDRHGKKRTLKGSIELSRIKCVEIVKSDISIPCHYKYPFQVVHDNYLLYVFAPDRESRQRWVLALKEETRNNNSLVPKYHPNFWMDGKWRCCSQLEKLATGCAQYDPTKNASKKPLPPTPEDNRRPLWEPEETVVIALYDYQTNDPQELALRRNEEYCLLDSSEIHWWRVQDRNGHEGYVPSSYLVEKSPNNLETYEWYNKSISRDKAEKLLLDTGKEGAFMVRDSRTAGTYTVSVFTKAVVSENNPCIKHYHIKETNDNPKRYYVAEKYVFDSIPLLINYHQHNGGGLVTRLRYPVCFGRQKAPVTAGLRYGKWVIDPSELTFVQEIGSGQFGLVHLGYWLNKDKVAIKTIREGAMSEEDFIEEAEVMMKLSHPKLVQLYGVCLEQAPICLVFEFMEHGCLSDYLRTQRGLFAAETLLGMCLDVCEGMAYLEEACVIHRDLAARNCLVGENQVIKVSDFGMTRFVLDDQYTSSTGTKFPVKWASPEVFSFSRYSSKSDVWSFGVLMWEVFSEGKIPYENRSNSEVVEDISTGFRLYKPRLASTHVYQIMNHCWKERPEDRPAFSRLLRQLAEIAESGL

[9] = biological target: Tyrosine-protein kinase Blk (Homo sapiens, UniProt P51451); assay: Inhibition of BLK (unknown origin)
[10] = biological target: Tyrosine-protein kinase Fgr (Homo sapiens, UniProt P09769); assay: Inhibition of human recombinant FGR using Ulight-TK peptide as substrate measured after 60 mins in the presence of ATP by LANCE method
[11] = biological target: Tyrosine-protein kinase TXK (Homo sapiens, UniProt P42681); assay: Inhibition of human recombinant TXK using Ulight-Poly GAT[EAY(1:1:1) as substrate measured after 30 mins in the presence of ATP by LANCE method
Sequence of Tyrosine-protein kinase TXK (P42681 whole entry): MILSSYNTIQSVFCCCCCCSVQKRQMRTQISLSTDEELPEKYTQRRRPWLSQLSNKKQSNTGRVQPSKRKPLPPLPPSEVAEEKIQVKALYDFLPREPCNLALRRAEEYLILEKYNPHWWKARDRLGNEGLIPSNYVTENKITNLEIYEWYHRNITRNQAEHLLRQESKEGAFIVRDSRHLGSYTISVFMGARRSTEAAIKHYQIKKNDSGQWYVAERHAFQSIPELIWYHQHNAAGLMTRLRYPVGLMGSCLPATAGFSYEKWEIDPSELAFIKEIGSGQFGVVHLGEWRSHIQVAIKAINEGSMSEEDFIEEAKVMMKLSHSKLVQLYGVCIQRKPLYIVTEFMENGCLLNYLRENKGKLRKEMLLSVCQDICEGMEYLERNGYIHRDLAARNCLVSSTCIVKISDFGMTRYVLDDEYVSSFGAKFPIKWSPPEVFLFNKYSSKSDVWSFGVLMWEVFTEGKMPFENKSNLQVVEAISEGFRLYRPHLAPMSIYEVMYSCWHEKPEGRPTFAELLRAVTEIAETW

[12] = biological target: Proto-oncogene tyrosine-protein kinase Src (Homo sapiens, UniProt P12931); assay: Inhibition of human recombinant SRC using Ulight-Poly GAT[EAY(1:1:1) as substrate measured after 10 mins in the presence of ATP by LANCE method
[13] = biological target: Tyrosine-protein kinase Fyn (Homo sapiens, UniProt P06241); assay: Inhibition of human recombinant FYN using biotinyl-beta amyloid beta amyloid beta AYQAEENTYDEYEN as substrate measured after 60 mins in the presence of ATP by HTRF assay
[14] = biological target: Tyrosine-protein kinase HCK (Homo sapiens, UniProt P08631); assay: Inhibition of HCK (unknown origin)
[15] = biological target: Tyrosine-protein kinase Lyn (Homo sapiens, UniProt P07948); assay: Inhibition of human recombinant LYN using biotinyl-beta amyloid beta amyloid beta AKVEKIGEGTYGVVYK as substrate measured after 120 mins in the presence of ATP by HTRF assay
[16] = biological target: Tyrosine-protein kinase Lck (Homo sapiens, UniProt P06239); assay: Inhibition of human recombinant LCK using Ulight-Poly GAT[EAY(1:1:1) as substrate measured after 10 mins in the presence of ATP by LANCE method
[17] = biological target: Tyrosine-protein kinase Yes (Homo sapiens, UniProt P07947); assay: Inhibition of human recombinant YES using biotinyl-beta amyloid beta amyloid beta AYQAEENTYDEYEN as substrate measured after 30 mins in the presence of ATP by HTRF assay
Sequence of Tyrosine-protein kinase Yes (P07947 whole entry): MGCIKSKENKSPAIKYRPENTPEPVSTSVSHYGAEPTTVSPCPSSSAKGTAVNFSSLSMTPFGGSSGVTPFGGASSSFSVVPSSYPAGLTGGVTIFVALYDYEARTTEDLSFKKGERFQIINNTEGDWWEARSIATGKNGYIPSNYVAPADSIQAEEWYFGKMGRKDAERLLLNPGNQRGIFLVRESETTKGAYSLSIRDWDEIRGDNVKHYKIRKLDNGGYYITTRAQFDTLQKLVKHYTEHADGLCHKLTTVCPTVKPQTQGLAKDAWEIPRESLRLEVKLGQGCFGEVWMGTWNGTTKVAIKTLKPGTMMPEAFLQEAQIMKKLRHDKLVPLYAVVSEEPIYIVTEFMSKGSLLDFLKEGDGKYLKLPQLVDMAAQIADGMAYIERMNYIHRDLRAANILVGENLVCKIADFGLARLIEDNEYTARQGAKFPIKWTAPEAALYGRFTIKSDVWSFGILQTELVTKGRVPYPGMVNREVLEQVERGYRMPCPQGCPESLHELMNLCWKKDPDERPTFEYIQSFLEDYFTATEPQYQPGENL

[18] = biological target: Epidermal growth factor receptor (Homo sapiens, UniProt P00533); assay: Inhibition of human recombinant EGFR using Ulight-CAGAGAIETDKEYYTVKD measured after 15 mins in the presence of ATP by LANCE method
[19] = biological target: Receptor tyrosine-protein kinase erbB-2 (Homo sapiens, UniProt P04626); assay: Inhibition of human recombinant HER2 using biotinyl-beta amyloid beta amyloid beta AAEEEEYFELVAKKK measured after 10 mins in the presence of ATP by HTRF assay
[20] = biological target: Receptor tyrosine-protein kinase erbB-4 (Homo sapiens, UniProt Q15303); assay: Inhibition of HER4 (unknown origin)
Sequence of Receptor tyrosine-protein kinase erbB-4 (Q15303 whole entry): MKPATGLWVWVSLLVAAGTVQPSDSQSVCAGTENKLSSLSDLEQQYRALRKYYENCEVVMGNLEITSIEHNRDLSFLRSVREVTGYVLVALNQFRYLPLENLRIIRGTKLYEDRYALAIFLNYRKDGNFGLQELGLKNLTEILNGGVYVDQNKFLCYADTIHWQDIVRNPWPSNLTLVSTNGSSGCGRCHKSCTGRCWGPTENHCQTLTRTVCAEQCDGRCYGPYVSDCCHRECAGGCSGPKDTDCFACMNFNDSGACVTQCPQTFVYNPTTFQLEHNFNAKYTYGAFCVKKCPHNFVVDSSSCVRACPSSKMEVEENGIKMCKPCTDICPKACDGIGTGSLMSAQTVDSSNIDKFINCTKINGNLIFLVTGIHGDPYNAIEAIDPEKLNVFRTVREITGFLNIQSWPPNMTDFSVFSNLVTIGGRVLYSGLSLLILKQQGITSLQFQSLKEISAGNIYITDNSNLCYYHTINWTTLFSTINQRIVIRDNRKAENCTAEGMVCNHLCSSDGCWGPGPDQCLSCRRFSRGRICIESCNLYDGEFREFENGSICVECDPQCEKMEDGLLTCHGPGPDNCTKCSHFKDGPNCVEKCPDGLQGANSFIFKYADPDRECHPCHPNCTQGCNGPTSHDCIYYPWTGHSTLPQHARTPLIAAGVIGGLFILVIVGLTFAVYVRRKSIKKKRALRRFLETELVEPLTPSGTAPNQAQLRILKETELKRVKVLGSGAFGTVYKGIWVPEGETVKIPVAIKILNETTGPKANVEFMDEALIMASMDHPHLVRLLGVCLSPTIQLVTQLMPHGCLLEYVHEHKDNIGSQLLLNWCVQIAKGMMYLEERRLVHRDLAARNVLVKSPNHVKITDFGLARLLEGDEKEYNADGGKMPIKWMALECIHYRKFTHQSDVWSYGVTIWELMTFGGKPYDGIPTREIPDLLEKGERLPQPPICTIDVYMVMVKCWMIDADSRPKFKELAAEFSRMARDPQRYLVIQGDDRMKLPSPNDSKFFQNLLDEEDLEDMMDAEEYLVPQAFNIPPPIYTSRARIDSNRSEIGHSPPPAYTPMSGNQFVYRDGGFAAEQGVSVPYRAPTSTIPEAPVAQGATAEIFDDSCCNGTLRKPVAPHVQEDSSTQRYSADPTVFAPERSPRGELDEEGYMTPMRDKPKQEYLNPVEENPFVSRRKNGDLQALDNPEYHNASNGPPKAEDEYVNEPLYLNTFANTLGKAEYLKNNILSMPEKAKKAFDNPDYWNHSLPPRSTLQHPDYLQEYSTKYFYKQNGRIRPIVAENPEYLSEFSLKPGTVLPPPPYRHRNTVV

[21] = biological target: Tyrosine-protein kinase JAK3 (Homo sapiens, UniProt P52333); assay: Inhibition of human recombinant JAK3 using Ulight-CAGAGAIETDKEYYTVKD measured after 60 mins in the presence of ATP by LANCE method
Sequence of Tyrosine-protein kinase JAK3 (P52333 whole entry): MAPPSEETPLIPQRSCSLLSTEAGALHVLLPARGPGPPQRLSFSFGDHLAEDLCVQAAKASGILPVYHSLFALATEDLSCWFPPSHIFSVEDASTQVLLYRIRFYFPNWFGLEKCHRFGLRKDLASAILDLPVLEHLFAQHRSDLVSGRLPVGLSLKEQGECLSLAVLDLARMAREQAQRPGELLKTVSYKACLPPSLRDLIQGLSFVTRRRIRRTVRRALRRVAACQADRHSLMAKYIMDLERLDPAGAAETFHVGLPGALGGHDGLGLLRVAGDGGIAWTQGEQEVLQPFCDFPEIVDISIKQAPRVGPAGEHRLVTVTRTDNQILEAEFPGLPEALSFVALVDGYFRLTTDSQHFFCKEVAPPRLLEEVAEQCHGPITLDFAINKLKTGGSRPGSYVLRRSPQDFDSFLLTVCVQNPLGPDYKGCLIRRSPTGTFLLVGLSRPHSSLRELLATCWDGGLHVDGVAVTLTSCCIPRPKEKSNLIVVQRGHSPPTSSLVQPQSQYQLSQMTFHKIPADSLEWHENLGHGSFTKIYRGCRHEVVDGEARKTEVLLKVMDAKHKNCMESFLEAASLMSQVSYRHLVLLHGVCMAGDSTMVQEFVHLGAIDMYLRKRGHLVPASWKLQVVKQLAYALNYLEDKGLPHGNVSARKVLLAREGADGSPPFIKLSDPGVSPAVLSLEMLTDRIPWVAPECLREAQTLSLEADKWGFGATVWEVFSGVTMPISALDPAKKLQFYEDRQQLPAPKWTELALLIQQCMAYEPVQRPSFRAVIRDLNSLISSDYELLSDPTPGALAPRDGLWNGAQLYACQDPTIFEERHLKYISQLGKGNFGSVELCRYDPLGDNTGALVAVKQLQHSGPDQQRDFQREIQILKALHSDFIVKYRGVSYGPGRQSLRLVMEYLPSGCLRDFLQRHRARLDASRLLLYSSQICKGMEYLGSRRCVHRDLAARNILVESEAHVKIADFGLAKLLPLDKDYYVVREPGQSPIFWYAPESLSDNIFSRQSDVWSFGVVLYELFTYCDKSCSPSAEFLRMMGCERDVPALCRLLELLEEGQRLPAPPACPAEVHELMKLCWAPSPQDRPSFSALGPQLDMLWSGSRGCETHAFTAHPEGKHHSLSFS

[22] = biological target: T1, Tyrosine-protein kinase BTK; assay: Inhibition of BTK auto phosphorylation at Tyr223 residue in human Ramos cells at 100 nM measured after 1 hr by Western blot analysis; format: cell-based
[23] = biological target: T1, Tyrosine-protein kinase BTK; assay: Inhibition of BTK auto phosphorylation at Tyr223 residue in human JeKo1 cells at 100 nM measured after 1 hr by Western blot analysis; format: cell-based
[24] = biological target: T1, Tyrosine-protein kinase BTK; assay: Inhibition of BTK auto phosphorylation at Tyr223 residue in human Daudi cells at 100 nM measured after 1 hr by Western blot analysis; format: cell-based
[25] = biological target: T1, Tyrosine-protein kinase BTK; assay: Inhibition of BTK in human Ramos cells assessed as reduction in PLCgamma-2 phosphorylation at Try1217 residue at 1000 nM after1 hr by Western blot analysis; format: cell-based
[26] = biological target: T1, Tyrosine-protein kinase BTK; assay: Inhibition of BTK in human JeKo1 cells assessed as reduction in PLCgamma-2 phosphorylation at Try1217 residue at 1000 nM after1 hr by Western blot analysis; format: cell-based
[27] = biological target: T1, Tyrosine-protein kinase BTK; assay: Inhibition of BTK in human Daudi cells assessed as reduction in PLCgamma-2 phosphorylation at Try1217 residue at 1000 nM after1 hr by Western blot analysis; format: cell-based
Mus musculus [28] = assay: Antiarthritic activity in DBA1/J mouse model of collagen-induced arthritis assessed as reduction in clinical arthritic score at 30 mg/kg to 60 mg/kg, po qd; format: functional, organism-based
Mus musculus [29] = assay: Antiarthritic activity in DBA1/J mouse model of collagen-induced arthritis assessed as reduction in reduction in paw thickness at 30 mg/kg to 60 mg/kg, po qd; format: functional, organism-based
Mus musculus [30] = assay: Antiarthritic activity in DBA1/J mouse model of collagen-induced arthritis assessed as reduction in bone erosion at 30 mg/kg, po qd by H and E staining based assay; format: functional, organism-based
Mus musculus [31] = assay: Antiarthritic activity in DBA1/J mouse model of collagen-induced arthritis assessed as reduction in cartilage damage at 30 mg/kg, po qd by H and E staining based assay; format: functional, organism-based
Mus musculus [32] = assay: Antiarthritic activity in DBA1/J mouse model of collagen-induced arthritis assessed as reduction in cellular infiltration at 60 mg/kg, po qd by Safranin O-staining based assay; format: functional, organism-based
[33] = Toxicity in DBA1/J mouse model of collagen-induced arthritis assessed as effect on body weight at 30 to 60 mg/kg, po qd; format: organism-based; conditions: in vivo
Mus musculus [34] = assay: Antiarthritic activity in collagen-induced DBA1/J mouse arthritis model assessed as reduction injoint inflammation at 30 mg/kg or 60 mg/kg, po qd cotreated with ibrutinib at 12.5 mg/kg by micro CT analysis; format: functional, organism-based
Mus musculus [35] = assay: Antiarthritic activity in DBA1/J mouse model of collagen-induced arthritis assessed as reduction in joint damage at 60 mg/kg, po qd by H and E staining based assay; format: functional, organism-based
Mus musculus [36] = assay: Antiarthritic activity in DBA1/J mouse model of collagen-induced arthritis assessed as reduction in bone erosion at 60 mg/kg, po qd by micro-CT analysis; format: functional, organism-based

## C=CC(=O)N1CCC[C@@H](n2nc(-c3ccc(Oc4ccccc4)cc3)c3c(N)ncnc32)C1 [IBRUTINIB]
Ramos
  IC50: 5010 nM
JeKo-1
  IC50: 1050 nM
Daudi
  IC50: 3920 nM
Mus musculus [1]
  Activity: Active
Mus musculus [2]
  Activity: inactive

## Nc1ncnc2c1c(-c1ccc(Oc3ccccc3)cc1)cn2C[C@H]1CCCN1C[C@@H]1CO1
[3]
  inhibition: 99.8%
[4]
  inhibition: 96.6%
[5]
  IC50: 44 nM
[6]
  IC50: 83 nM
Ramos
  IC50: 8520 nM
JeKo-1
  IC50: 11100 nM
Daudi
  IC50: 7040 nM
[7]
  IC50: 3 nM
[8]
  IC50: > 1000 nM
[9]
  IC50: 10 nM
[10]
  IC50: 28 nM
[11]
  IC50: 358 nM
[12]
  IC50: 123 nM
[13]
  IC50: 232 nM
[14]
  IC50: 33 nM
[15]
  IC50: 10 nM
[16]
  IC50: 31 nM
[17]
  IC50: 86 nM
[18]
  IC50: > 1000 nM
[19]
  IC50: > 1000 nM
[20]
  IC50: 385 nM
[21]
  IC50: > 1000 nM
[22]
  inhibition: Active
[23]
  inhibition: Active
[24]
  inhibition: Active
[25]
  inhibition: Active
[26]
  inhibition: Active
[27]
  inhibition: Active
Mus musculus [28]
  Activity: Dose-dependent effect
Mus musculus [29]
  Activity: Dose-dependent effect
Mus musculus [30]
  Activity: Active
Mus musculus [31]
  Activity: Active
Mus musculus [32]
  Activity: Active
[33]
  Activity: Non-Toxic
Mus musculus [34]
  Activity: Dose-dependent effect
Mus musculus [35]
  Activity: Active
Mus musculus [36]
  Activity: Active

## Nc1ncnc2c1c(-c1ccc3c(c1)OCO3)cn2[C@H]1CCN(C[C@H]2CO2)C1
[3]
  inhibition: 86.5%
[4]
  inhibition: 62.2%
Ramos
  IC50: 5000 nM
JeKo-1
  IC50: 2280 nM
Daudi
  IC50: 2440 nM
[7]
  IC50: 41.9 nM

## CC1(CN2CC[C@H](n3cc(-c4ccc5c(c4)OCO5)c4c(N)ncnc43)C2)COC1
[3]
  inhibition: 36.1%
[4]
  inhibition: 13.9%
Ramos
  IC50: 20400 nM
JeKo-1
  IC50: 19000 nM
Daudi
  IC50: 44700 nM
[7]
  IC50: > 500 nM

## Nc1ncnc2c1c(-c1ccc(Oc3ccccc3)cc1)cn2[C@H]1CCN(C[C@H]2CO2)C1
[3]
  inhibition: 90.1%
[4]
  inhibition: 52%
Ramos
  fold change (FC): 3 - 10
  IC50: > 50000 nM
JeKo-1
  fold change (FC): 3 - 10
  IC50: 5080 nM
Daudi
  fold change (FC): 3 - 10
  IC50: 15700 nM
[7]
  IC50: 89.4 nM

## Nc1ncnc2c1c(-c1ccc3c(c1)OCO3)cn2C[C@@H]1CCN(C[C@@H]2CO2)C1
[3]
  inhibition: 86.3%
[4]
  inhibition: 48.3%
Ramos
  IC50: 13300 nM
JeKo-1
  IC50: 10300 nM
Daudi
  IC50: 15900 nM
[7]
  IC50: 123 nM

## Nc1ncnc2c1c(-c1ccc3c(c1)OCO3)cn2[C@H]1CCN(C2COC2)C1
[3]
  inhibition: 52%
[4]
  inhibition: 19.7%
Ramos
  IC50: > 50000 nM
JeKo-1
  IC50: > 50000 nM
Daudi
  IC50: > 50000 nM
[7]
  IC50: > 500 nM
